Test results published in US12678433B2, “Compounds for treatment of hemolysis-and inflammasome-associated diseases” (New York Blood Center, Inc., priority 2020, dated 2026).
Read-outs that look alike come from different tables or passages of the source.

System: purified naïve B cells from healthy donors
Protocol: Hemin and RBC lysate preparation. Hemin, dissolved in dimethyl sulfoxide (DMSO), stock concentration 10 mM, was diluted to 100 μM with serum-free RPMI 1640 culture medium just prior to addition to B cell cultures. For short-term experiments lasting less than 24 hr, a final concentration of 10 μM hemin was used whereas for longer-term culture up to 7 days, 2.5-5 μM final heme concentration was used. RBC lysates were freshly prepared (containing ~80 g/L hemoglobin) for same day use. Briefly, 4 ml whole blood from healthy donors was passed through Acrodisc WBC syringe filter (Pall Corporation) to remove white blood cells followed by two washes with Dulbecco's Phosphate Buffered Saline (D-PBS) (200×g, 10 min at room temperature with no brake) for removal of platelets. The RBC pellet was lysed with 3 times volume of distilled water for 10 min at 37° C. Cellular debris was pelleted by centrifugation at 4000×g for 10 min at 4° C. The RBC lysate was transferred to a new tube and 1/9 volume of 10×D-PBS added.
Cell isolation and culture. Peripheral blood mononuclear cells (PBMCs) were prepared by Ficoll (GE Healthcare) density gradient centrifugation from healthy donor leukopak products as well as from sickle peripheral blood apheresis waste bags. Human naïve and memory B cells were isolated from PBMCs using a human memory B Cell Isolation Kit (Miltenyi Biotec) by collecting CD27− B cells (naïve B cells) and CD27+ B cell (memory B cells) separately. […] RPMI 1640 culture medium was used for all cell culture experiments (supplemented with 10% FBS, 100-unit penicillin-streptomycin, […], 1 mM sodium pyruvate, all from Thermo Fisher Scientific). Purified B cells were stained with CFSE (Cat #: C34554, Thermo Fisher Scientific) and cultured in U-bottom 96 well plates (2.5×10^5/well/200 μl culture medium) in the presence of goat anti-human IgA+IgG+IgM (H+L) F(ab′)2 fragment (2.5 μg/ml, Jackson ImmunoResearch), CD154 (10 ng/ml, R&D Systems) and CpG (ODN 7909, 1 nM, Cat #: tlrl-2006-1) without IL-2 for analysis of only CD38+ plasmablast differentiation or with IL-2 (5 ng/ml, Cat #:1081-IL-020, R&D Systems) in experiments to detect CD27^hiBlimp-1+ plasma cells. In addition, heme and various inhibitors were added to the cultures at the start point and incubated for 7 days.
Cultured cells: stimulated B cells were transferred into U bottom 96 well plate and washed with 200 μl MACS buffer (D-PBS containing 0.5% BSA and 2 mM EDTA) at 300×g for 5 min at 4° C. After one wash, cells were stained for surface expression of CD19, CD38, CD27 using 25 μl staining buffer (anti-CD19, CD38, CD27 antibodies, diluted 200 fold with MACS buffer) for 30 min at 4° C. After one wash with 200 μl MACS buffer, cells were resuspended in 100 μl D-PBS and 50 μl Fixable Viability Dye eFluor™ 780 (1000 fold diluted with D-PBS, Thermo Fisher Scientific) was added for dead cell detection for 5 min at room temperature. Cells were washed one time with MACS buffer and 100 μl D-DPS was added just before flow cytometric analysis (LSRFortessa flow cytometer, BD Bioscience). For intracellular staining of IgG, Blimp-1 and HO-1, samples were first washed with 200 μl MACS buffer before addition of 150 μl Fixation/Permeabilization buffer (Thermo Fisher Scientific) for 45 min at 4° C. After fixation, samples were washed twice with 1× Permeabilization buffer (Thermo Fisher Scientific) and stained with 25 μl intracellular staining buffer (anti-human IgG, DOCK8, Blimp-1, HO-1 antibodies, diluted 200 fold with 1× Permeabilization buffer) for 45 min at 4° C., after which the cells were washed twice with Permeabilization buffer and 100p D-DPS was added prior to flow cytometric analysis.

[1] = HD naïve B cells, 7 days, highest heme concentration tested (5 μM)

SMILES: C=CC1=C(C)c2cc3[n-]c(cc4[n-]c(cc5nc(cc1n2)C(C)=C5C=C)c(C)c4CCC(=O)O)c(CCC(=O)O)c3C.[Fe+2] [heme, iron(III) complex of protoporphyrin IX]
- effect on B cell proliferation (2.5 μM heme): minor inhibition
- effect on differentiation of naïve B cells into plasmablasts (2.5 μM heme): robust inhibitory effect
- B cell class switch recombination (percent IgG+ B cells) (2.5 or 5 μM hemin): not affected
- inhibition of B cell proliferation [1]: 6.8%±1.3%
- inhibition of plasmablast cell differentiation [1]: 52.7%±8.0%
- effect on B cell proliferation (heme 2.5 μM, SnPPIX 2.5 μM, alone or together): little to no effect
- CD27hiBlimp-1+ plasma cell differentiation (heme 2.5 or 5 μM, 7 days): inhibition
- percentage of viable B cells (highest dose of heme used): high
